One compound from US20230364012A1, “STABLE OPHTHALMIC COMPOSITION OF LOTEPREDNOL” (MANKIND PHARMA LTD., priority 2022, published 2023) can be followed below.

Molecules are shown by their SMILES.

This data set can be described thus: Particle size of the compositions, tested initially, after 15 days and one month (stability studies). The format is physicochemical. The following applies: Initial. How it is done:
The particle size of the compositions of the invention were tested initially, after 15 days and one month. The compositions of the invention were then observed and tested for particle aggregation, settling, and flocculation on long term storage. The observations at one month, three months, 6 months, 9 months are as follows: […]

Regarding `CCOC(=O)O[C@]1(C(=O)OCCl)CC[C@H]2[C@@H]3CCC4=CC(=O)C=C[C@]4(C)[C@H]3[C@@H](O)C[C@@]21C` [API, Loteprednol etabonate], the Particle size D10 came out at 1 µm, the Particle size D50 was found to be 3.3 µm and the Particle size D90 is 9.1 µm.
